Assay results from patent publication US9856256B2, “Pyridino[1,2-A]pyrimidone analogue used as P13K inhibitor” (CHIA TAI TIANQING PHARMACEUTICAL GROUP CO., LTD., priority 2014, dated 2018).

Assays:
mTOR = target: T1, mTOR (Homo sapiens, UniProt P42345); assay: In vitro enzyme activity assay, mTOR kinase (32P-ATP, P81 filter-binding); type: biochemical; settings: 4EBPI substrate, 10 μM ATP; read-out: mTOR enzyme activity_IC50
T1 construct: recombinant human mTOR fragment (amino acid 1360-2549, molecular weight=163.9 kDa); GST-tag (N); host or cells: insect cells
Description: mTOR kinase activities of the compounds in all the examples of the present invention were tested via the following method.
Reaction buffer: 20 mM Hepes (pH 7.5), 10 mM MgCl2, 2 mM MnCl2, 1 mM EGTA, 0.02% Brij35, 0.02 mg/mL BSA, 0.1 mM Na3VO4, 2 mM DTT, and 2% DMSO.
Enzyme for reaction: recombinant human mTOR fragment (amino acid 1360-2549, molecular weight=163.9 kDa) with a GST-tag at the N-terminus, which was expressed in insect cells.
Substrate for reaction: recombinant full-length human 4EBPI (molecular weight=13.6 kDa) with a His-tag at the N-terminus, which was expressed in bacteria.
Reaction conditions: […] 4EBPI and 10 μM ATP.
1. adding the reaction substrate and other reaction factors into the freshly prepared reaction buffer;
(§1) 2. adding the kinase into the substrate reaction solution, and mixing gently;
3. transferring the compound dissolved in 100% DMSO into the kinase reaction solution by using Acoustic technique (Echo550; nanoliter rang), and incubating at room temperature for 20 minutes;
4. adding an appropriate concentration of ^32P-ATP into the reaction system;
5. incubating at room temperature for 2 hours;
6. detecting the kinase activity by using P81 filter-binding method.

MCF-7 cells = assay: In vitro cell activity assay (MCF-7, insulin stimulation, ELISA-One); type: cell-based; settings: Homo sapiens, MCF7, compound 2 hours in serum-free media, then 10 μg/ml insulin 30 min
Description: Experimental Steps and Method Comprise:
1. MCF-7 cells were seeded at 2,5000 cells per well in a 96 well tissue culture plate in a complete media containing 10%0/FBS.
3. The cells were treated with 10 μg/ml insulin in serum-free media for 30 min.
4. During waiting period, lysis solution was prepared as below:
a) Enhancer Solution needs to be taken out from the refrigerator to be thawed.
b) Concentrated lysis solution was prepared by diluting Enhancer Solution 10-fold in 5× Lysis Buffer.
c) Lysis solution was prepared by diluting concentrated lysis solution 5-fold with ddH2O.
5. Any media were removed from wells and the wells were rinsed with PBS once quickly.
6. 50 μL of freshly prepared lysis solution were added into each well, with shaking at room temperature for 10 min.
7. After confirming that all cells get detached from wells, the lysis solution together with the cell debris was transferred to 1.5 ml tubes.
8. The tubes were vortexed several times to thoroughly mix the lysis solution and cells, and then, and then the mixture was centrifuged at 12,000 g for 10 min at 4° C.;
9. The desired number of ELISA-One microplate strips was determined. Unused strips were removed from frame and returned to storage pouch and seal. Wells for use in the assay were rinsed with 200 μL ddH2O to remove preservatives prior to use.
10. 50 μL of antibody mixture solution was added into each well. (Antibody mixture solution was prepared by mixing capture antibody reagent and detection antibody reagent equally, avoid vortexing)
11. 25 μL of lysate was added into each well of the ELISA-One microplate. The microplate was covered with adhesive seal and incubated for 1 hour at room temperature on a microplate shaker.
12. Each well was washed with 150 μL 1× wash buffer 3 times. After final wash, any remaining wash buffer was removed from wells. If necessary, leave microplate in 1× Wash Buffer for up to 30 min, until substrate mixture solution has been prepared.
13. The substrate mixture solution should be prepared when used, 100 μL of substrate mixture solution was added into each well, and then the microplate was sealed with tin foil and incubated at room temperature for 10 minutes on a microplate shaker.
14. 10 μL of stop solution was added into each well, and then mixed slightly (5-10 seconds) on a microplate shaker.
15. Corresponding ELISA-One filter set was installed to read the fluorescence signal intensity.

PI3K (p110α) = PI3K (p110α) (Homo sapiens, UniProt P42336); assay: In vitro enzyme activity assay, PI3K (p110α) kinase, Method I (HTRF); type: biochemical; set-up: recombinant full-length human PI3K p110α subunit; His-tag (N); host or cells: insect cells; settings: 10 μM PI(4,5)P2 and 10 μM ATP), read-out: PI3K (p110α) enzyme activity_IC50
Description: PI3K (p110α) kinase activities of the compounds in all the examples of the present invention were tested via the following two methods, respectively.
Reaction buffer: HEPES 50 mM (pH7.0), NaN3 0.02%, BSA 0.01%. Orthovanadate 0.1 mM, and 1% DMSO.
Detection buffer: HEPES 10 mM (pH7.0), BSA 0.02%, KF 0.16 M, and EDTA 4 mM.
Enzymes for reaction: recombinant full-length human PI3K p110α subunit (molecular weight=128.4 kDa) with a His-tag at the N-terminus and unlabeled p85α subunit (molecular weight=83.6 kDa), which were expressed in insect cells.
Substrate for reaction: […] PIP2 substrate (PI(4,5)P2).
Reaction conditions: 10 μM PI(4,5)P2 and 10 μM ATP.
1. preparing the substrate in the freshly prepared reaction buffer;
as §1
3. transferring the compound dissolved in 100% DMSO into the kinase reaction solution by using Acoustic technique (Echo550; nanoliter rang), and incubating at room temperature for 10 minutes;
4. adding an appropriate concentration of ATP into the reaction system,
5. incubating at 30° C. for half an hour;
6. terminating the reaction by adding a stop solution;
7. adding the detection buffer and incubating overnight; and
8. detecting by using homogeneous time-resolved fluorescence (HTRF) method (excitation wavelength of 320 nm, measuring the ratio of the emission wavelength readings at 615 nm and 665 nm).

T1 sequence (P42345 1360-2549): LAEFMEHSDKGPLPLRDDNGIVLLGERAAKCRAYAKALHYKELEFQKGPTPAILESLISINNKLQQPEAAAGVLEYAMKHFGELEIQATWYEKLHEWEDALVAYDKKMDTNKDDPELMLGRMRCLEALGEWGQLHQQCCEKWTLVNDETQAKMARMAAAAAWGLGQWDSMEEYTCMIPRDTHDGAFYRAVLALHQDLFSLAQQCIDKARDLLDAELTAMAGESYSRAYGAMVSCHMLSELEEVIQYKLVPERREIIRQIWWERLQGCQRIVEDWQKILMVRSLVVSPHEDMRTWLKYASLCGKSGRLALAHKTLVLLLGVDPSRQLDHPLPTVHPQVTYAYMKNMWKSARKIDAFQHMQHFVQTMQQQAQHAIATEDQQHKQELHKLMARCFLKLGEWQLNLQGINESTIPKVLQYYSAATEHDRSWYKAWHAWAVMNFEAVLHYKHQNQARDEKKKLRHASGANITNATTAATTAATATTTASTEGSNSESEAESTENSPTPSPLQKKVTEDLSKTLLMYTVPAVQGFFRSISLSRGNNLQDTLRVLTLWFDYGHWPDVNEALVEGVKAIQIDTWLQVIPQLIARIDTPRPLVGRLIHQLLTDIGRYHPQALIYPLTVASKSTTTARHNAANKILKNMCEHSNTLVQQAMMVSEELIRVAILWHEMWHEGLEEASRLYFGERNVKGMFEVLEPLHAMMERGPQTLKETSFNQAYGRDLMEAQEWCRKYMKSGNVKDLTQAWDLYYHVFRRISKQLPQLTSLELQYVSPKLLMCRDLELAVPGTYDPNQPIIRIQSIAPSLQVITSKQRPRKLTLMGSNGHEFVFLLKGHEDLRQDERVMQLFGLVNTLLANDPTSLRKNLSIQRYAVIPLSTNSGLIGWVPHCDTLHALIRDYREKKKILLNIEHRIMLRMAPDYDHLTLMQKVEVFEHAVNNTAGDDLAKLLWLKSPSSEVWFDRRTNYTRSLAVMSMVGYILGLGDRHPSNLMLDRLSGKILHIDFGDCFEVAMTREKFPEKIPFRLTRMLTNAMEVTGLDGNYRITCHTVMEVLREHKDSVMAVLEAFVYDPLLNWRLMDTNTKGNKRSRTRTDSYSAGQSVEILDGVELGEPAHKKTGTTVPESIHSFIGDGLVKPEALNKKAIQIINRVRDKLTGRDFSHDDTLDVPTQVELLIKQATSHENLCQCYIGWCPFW
Sequence of PI3K (p110α) (P42336 whole entry): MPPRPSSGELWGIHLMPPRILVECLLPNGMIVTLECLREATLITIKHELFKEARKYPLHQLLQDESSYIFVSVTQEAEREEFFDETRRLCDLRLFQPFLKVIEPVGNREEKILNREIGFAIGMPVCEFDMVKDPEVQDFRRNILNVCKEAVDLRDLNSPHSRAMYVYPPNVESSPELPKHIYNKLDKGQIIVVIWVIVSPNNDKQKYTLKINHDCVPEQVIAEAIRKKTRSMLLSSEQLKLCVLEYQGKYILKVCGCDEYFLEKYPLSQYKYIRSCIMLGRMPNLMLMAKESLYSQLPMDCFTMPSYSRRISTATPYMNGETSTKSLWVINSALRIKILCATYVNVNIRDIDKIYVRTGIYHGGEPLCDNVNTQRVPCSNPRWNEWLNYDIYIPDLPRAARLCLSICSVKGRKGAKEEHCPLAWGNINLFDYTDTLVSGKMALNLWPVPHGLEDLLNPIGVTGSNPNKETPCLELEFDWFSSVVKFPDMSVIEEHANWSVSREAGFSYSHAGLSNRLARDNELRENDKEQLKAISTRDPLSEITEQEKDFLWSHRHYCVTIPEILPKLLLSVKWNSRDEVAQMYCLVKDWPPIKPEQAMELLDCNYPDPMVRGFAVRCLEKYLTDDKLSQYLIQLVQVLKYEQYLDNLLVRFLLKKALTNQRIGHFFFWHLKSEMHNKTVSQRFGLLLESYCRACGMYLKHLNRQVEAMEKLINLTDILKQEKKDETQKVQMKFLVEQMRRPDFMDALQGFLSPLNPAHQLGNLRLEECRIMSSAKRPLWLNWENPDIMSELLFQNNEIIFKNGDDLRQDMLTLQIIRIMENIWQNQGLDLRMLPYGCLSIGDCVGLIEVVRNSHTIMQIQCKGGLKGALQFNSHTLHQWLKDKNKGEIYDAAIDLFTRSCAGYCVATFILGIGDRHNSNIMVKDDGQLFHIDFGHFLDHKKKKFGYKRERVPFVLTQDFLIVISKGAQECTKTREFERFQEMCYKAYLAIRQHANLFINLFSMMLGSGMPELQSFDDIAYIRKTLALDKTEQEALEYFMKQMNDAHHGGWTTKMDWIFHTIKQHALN
Sequence of PI3K (p110α) (P27986 whole entry partner): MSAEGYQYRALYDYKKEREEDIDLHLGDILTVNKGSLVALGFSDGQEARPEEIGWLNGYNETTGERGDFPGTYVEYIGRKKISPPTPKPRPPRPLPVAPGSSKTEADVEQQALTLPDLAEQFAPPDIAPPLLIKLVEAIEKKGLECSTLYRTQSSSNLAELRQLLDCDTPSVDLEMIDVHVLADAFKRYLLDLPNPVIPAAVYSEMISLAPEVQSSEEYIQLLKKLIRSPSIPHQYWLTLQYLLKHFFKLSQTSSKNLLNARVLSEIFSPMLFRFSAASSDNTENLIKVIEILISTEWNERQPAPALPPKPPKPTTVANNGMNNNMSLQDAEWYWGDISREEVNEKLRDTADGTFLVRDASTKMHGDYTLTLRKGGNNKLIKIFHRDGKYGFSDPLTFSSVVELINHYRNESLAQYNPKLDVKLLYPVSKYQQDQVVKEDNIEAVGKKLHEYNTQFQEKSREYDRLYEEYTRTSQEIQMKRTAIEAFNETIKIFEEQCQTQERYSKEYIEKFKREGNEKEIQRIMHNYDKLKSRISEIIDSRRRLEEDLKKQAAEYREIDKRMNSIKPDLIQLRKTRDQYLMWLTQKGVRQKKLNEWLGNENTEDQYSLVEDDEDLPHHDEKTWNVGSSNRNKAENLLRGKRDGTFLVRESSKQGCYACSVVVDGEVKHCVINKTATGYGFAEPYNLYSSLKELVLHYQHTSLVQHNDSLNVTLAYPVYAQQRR

Row | IC50 (mTOR) [nM] | IC50 (MCF-7 cells) [nM] | IC50 (PI3K (p110α)) [nM] | Compound
1 | > 200 | 100 to 250 | ≤ 1 | COc1ncc(-c2ccc3ncc(OCCN4CCCC4)c(=O)n3c2)cc1NS(=O)(=O)c1ccc(F)cc1F [Compound 42]
2 | > 200 | 50 to 100 | ≤ 1 | COc1ncc(-c2ccc3ncc(OCCN(C)C)c(=O)n3c2)cc1NS(=O)(=O)c1ccc(F)cc1F [Compound 43]

Second part, the compound before the results:

Row | Compound | IC50 (mTOR) [nM] | IC50 (MCF-7 cells) [nM] | IC50 (PI3K (p110α)) [nM]
3 | COc1ncc(-c2ccc3ncc(OCCN(C)C)c(=O)n3c2)cc1NS(=O)(=O)c1sc(C)nc1C [Compound 35] | 50 to 200 | ≤ 50 | ≤ 1
4 | COc1ncc(-c2ccc3ncc(OCCN(C)C)c(=O)n3c2)cc1NS(=O)(=O)c1sccc1C [Compound 36] | > 200 | ≤ 50 | ≤ 1
5 | COc1ncc(-c2ccc3ncc(OCCn4cccn4)c(=O)n3c2)cc1NS(=O)(=O)c1ccc(F)cc1F [Compound 37, 2,4-Difluoro-N-(2-methoxy-5-(4-oxo-3-(2-pyrazol-1-yl-ethoxy)pyrido[1,2-a]pyrimidin-7-yl)pyridin-3-yl)benzenesulfonamide] | 50 to 200 | 100 to 250 | ≤ 1
